Values of other authors as cited in US12648566B2, “Solid bio-pesticidal composition comprising of elemental sulphur and azadirachtin” (SML LIMITED, priority 2021, dated 2026).

Conditions: buffer, pH 4

In the case of `C/C=C(\C)C(=O)O[C@H]1C[C@@H](OC(C)=O)[C@@]2(C(=O)OC)CO[C@H]3[C@@H](O)[C@@](C)([C@]45O[C@@]4(C)[C@H]4C[C@@H]5O[C@@H]5OC=C[C@@]54O)[C@H]4[C@]1(CO[C@]4(O)C(=O)OC)[C@@H]32` [Azadirachtin], the laboratory half-life is given as 50 to 100 days.
